Source: patent US12441719B2, “Inhibitors of SARM1” (Disarm Therapeutics, Inc., priority 2019, dated 2025)

target: T1, SARM1 (Homo sapiens, UniProt Q6SZW1); test: ARM-SAM-TIR SARM1 IC50 assay (NADase activity, NAD+ cleavage); assay type: biochemical; settings: not given
T1 construct: AviTag […]; made in house; host or cells: NRK1-HEK293T cells, transiently transfected; the clarified sonicated lysate was used without purification
T1 sequence (Q6SZW1 with tags, fused parts or gaps): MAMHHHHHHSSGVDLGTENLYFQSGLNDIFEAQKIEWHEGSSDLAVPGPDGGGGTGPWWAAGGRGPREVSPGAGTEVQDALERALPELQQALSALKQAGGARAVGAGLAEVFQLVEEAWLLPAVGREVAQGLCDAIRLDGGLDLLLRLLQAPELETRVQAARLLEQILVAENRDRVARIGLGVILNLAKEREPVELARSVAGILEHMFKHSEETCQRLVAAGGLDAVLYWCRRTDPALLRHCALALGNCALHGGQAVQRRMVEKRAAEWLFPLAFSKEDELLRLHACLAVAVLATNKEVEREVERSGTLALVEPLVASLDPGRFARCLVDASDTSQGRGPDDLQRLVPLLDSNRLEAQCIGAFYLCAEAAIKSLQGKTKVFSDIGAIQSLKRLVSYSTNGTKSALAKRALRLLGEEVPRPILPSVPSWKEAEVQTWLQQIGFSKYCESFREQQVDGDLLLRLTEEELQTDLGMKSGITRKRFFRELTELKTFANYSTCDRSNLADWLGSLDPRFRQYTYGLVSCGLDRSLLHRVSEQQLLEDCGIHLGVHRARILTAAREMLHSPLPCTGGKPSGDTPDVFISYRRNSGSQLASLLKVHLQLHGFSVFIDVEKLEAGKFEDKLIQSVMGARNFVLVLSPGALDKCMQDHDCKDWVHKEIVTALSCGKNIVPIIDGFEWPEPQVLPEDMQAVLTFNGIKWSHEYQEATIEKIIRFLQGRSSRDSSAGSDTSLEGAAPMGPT
From the text: This Example describes an assay of ARM-SAM-TTR NADase activity and use of this assay to measure the efficacy of compounds of Formula I or Formula II to block SARM1 mediated NAD+ cleavage. This assay is optimized in such a way as to characterize the efficacy of the compounds in Formula I or Formula II to inhibit SARM1 activity and to calculate an IC50 value for each compound. This assay makes use of full length SARI, which encompasses the ARM, SAM and TTR domains.
Preparation of ARM-SAM-TIR Lysate (STL)
NRK1-HEK293T cells were seeded onto 150 cm^2 plates at 20×10^6 cells per plate. The next day, the cells were transfected with 15 μg ARM-SAM-TIR expression plasmid, SEQ ID NO: 1.
The cultures were supplemented with 1 mM NR at time of transfection to minimize toxicity from ARM-SAM-TIR overexpression. Forty-eight hours after transfection, cells were harvested, pelleted by centrifugation at 1,000 rpm (Sorvall ST 16R centrifuge, Thermo Fisher), and washed once with cold PBS (0.01 M phosphate buffered saline NaCl 0.138 M; KCl 0.0027 M; pH 7.4). The cells were resuspended in PBS with protease inhibitors (cOmplete™ protease inhibitor cocktail, Roche product #11873580001) and cell lysates were prepared by sonication (Branson Sonifer 450, output=3, 20 episodes of stroke). The lysates were centrifuged (12,000×g for 10 min at 4° C.) to remove cell debris and the supernatants (containing ARM-SAM-TIR protein) were stored at −80° C. for later use in the in vitro ARM-SAM-TIR NADase assay (see below). Protein concentration was determined by the Bicinchoninic (BCA) method and used to normalize lysate concentrations.
ARM-SAM-TIR IC50 Assay of Formula I or Formula II Compounds.
The enzymatic assay was performed in a 384-well polypropylene plate in Dulbecco's PBS buffer in a final assay volume of 20 μL. ARM-SAM-TIR lysate with a final concentration of 5 μg/mL was pre-incubated with the respective compound at 1% DMSO final assay concentration over 2 h at room temperature. The reaction was initiated by addition of 5 μM final assay concentration of NAD+ as substrate. After a 2 hr room temperature incubation, the reaction was terminated with 40 μL of stop solution of 7.5% trichloroactetic acid in acetonitrile. The NAD+ and ADPR concentrations were analyzed by a RapidFire High Throughput Mass Spectrometry System (Agilent Technologies, Santa Clara, CA) using an API4000 triple quadrupole mass spectrometer (AB Sciex Framingham, MA).

| Compound | IC50 |
| --- | --- |
| N#Cc1cc(N2CCNCC2)nc2ccc(Cl)cc12 [Example 16] | > 30 µM |
| N#Cc1cc(N2CC3CCC2CN3)nc2ccc(Cl)cc12 (centres unmarked) [Example 74] | < 5 µM |
| N#Cc1cc(N2C3CNCC2C3)nc2ccc(Cl)cc12 [Example 72] | < 5 µM |
| N#Cc1cc(N2C[C@H]3C[C@@H]2CN3)nc2ccc(Cl)cc12 [Example 84] | 5 to 15 µM |
| N#Cc1cc(N2CC3CC(C2)N3)nc2ccc(Cl)cc12 [Example 73] | < 5 µM |

same assay, conditions: ARM-SAM-TIR lysate 5 μg/mL from NRK1-HEK293T cells; 2 h pre-incubation with compound, 5 μM NAD+, 2 hr room temperature; NAD+ and ADPR by RapidFire mass spectrometry; read-out: SARM1 IC50

| Compound | IC50 |
| --- | --- |
| N#Cc1cc(N2CCC(C(N)=O)CC2)nc2ccc(Cl)cc12 [Example 56] | 5 to 15 µM |
| COc1cc(C#N)c2cc(Cl)ccc2n1 [Example 14] | < 5 µM |
| N#Cc1cc(N2CCC[C@@H]2C(=O)N2CCCC2)nc2ccc(Br)cc12 [Example 146] | < 5 µM |
| N#Cc1cc(NC2CC2)nc2ccc(Cl)cc12 [Example 51] | > 30 µM |
| N#Cc1cc(N2CCC[C@H](NC(=O)N3CCS(=O)(=O)CC3)C2)nc2ccc(Br)cc12 [Example 138] | < 5 µM |
| N#Cc1cc(N2CCCC(c3ccccn3)C2)nc2ccc(Br)cc12 (centres unmarked) [Example 150] | < 5 µM |
| N#Cc1cc(NCC(O)c2ccco2)nc2ccc(Cl)cc12 (centres unmarked) [Example 30] | 5 to 15 µM |
| N#Cc1cc(N2CCOCC2C2CC2)nc2ccc(Cl)cc12 (centres unmarked) [Example 131] | < 5 µM |
| Cc1ccc2nc(N3CCC(N)CC3)cc(C#N)c2c1 [Example 17] | 5 to 15 µM |
| N#Cc1cc(N2CCC[C@H](NC(=O)C3CC3)C2)nc2ccc(Br)cc12 [Example 106] | < 5 µM |
| CN(Cc1ccccc1)C(=O)[C@H]1CCCN(c2cc(C#N)c3cc(Br)ccc3n2)C1 [Example 116] | < 5 µM |
| N#Cc1cc(N2CCC[C@@H](N)C2)nc2ccc(Cl)cc12 [Example 85] | 5 to 15 µM |
| CC(=O)N1CCN(c2cc(C#N)c3cc(Cl)ccc3n2)CC1 [Example 35] | < 5 µM |
| C[C@@]1(NS(C)(=O)=O)CCCN(c2cc(C#N)c3cc(Br)ccc3n2)C1 [Example 122] | < 5 µM |
| CC1(NS(C)(=O)=O)CCN(c2cc(C#N)c3cc(Br)ccc3n2)CC1 [Example 118] | < 5 µM |
| C#CCCC1(CCNc2cc(C#N)c3cc(Cl)ccc3n2)N=N1 [Example 111] | < 5 µM |
| C[C@H]1CCCCN1c1cc(C#N)c2cc(Cl)ccc2n1 [Example 83] | < 5 µM |
| N#Cc1cc(N2CCC(O)CC2)nc2ccc(Cl)cc12 [Example 75] | < 5 µM |
| N#Cc1cc(N2CCC(NCCO)CC2)nc2ccc(Cl)cc12 [Example 1] | 5 to 15 µM |
| CN(Cc1ccccc1)C(=O)C1CCN(c2cc(C#N)c3cc(Br)ccc3n2)CC1 [Example 125] | < 5 µM |
| CC(O)c1ccc2nc(N3[C@H](C)CCC[C@@H]3C)cc(C#N)c2c1 (some centres unmarked) [Example 147] | < 5 µM |
| CC(=O)NC1(C)CCN(c2cc(C#N)c3cc(Br)ccc3n2)CC1 [Example 114] | < 5 µM |
| C[C@@H]1CCC[C@H](C)N1c1cc(C#N)c2cc(C#N)ccc2n1 [Example 140] | < 5 µM |
| CNc1cc(C#N)c2cc(Cl)ccc2n1 [Example 50] | < 5 µM |
| CCN1CCN(c2cc(C#N)c3cc(Cl)ccc3n2)CC1 [Example 53] | > 30 µM |
| N#Cc1cc(N2CCC[C@@H](C(=O)NCc3cnccn3)C2)nc2ccc(Br)cc12 [Example 141] | < 5 µM |
| COCCNC(=O)[C@H]1CCCN(c2cc(C#N)c3cc(Br)ccc3n2)C1 [Example 102] | < 5 µM |
| CC(C)(C)OC(=O)NC1CCN(c2cc(C#N)c3cc(C4CCOC4)ccc3n2)CC1 (centres unmarked) [Example 94] | < 5 µM |

Other lines, results leading:

| IC50 | Compound |
| --- | --- |
| < 5 µM | N#Cc1cc(N2CCCC23CCOC3)nc2ccc(Br)cc12 (centres unmarked) [Example 145] |
| < 5 µM | C[C@@H]1CCCCN1c1cc(C#N)c2cc(Cl)ccc2n1 [Example 82] |
| 15 to 30 µM | COCCNC(=O)CNc1cc(C#N)c2cc(Cl)ccc2n1 [Example 29] |
| < 5 µM | Cn1ccnc1C1CCCN(c2cc(C#N)c3cc(Br)ccc3n2)C1 (centres unmarked) [Example 151] |
| < 5 µM | CNC(=O)C1CCN(c2cc(C#N)c3cc(Cl)ccc3n2)CC1 [Example 57] |
| < 5 µM | C[C@@H]1CCC[C@H](C)N1c1cc(C#N)c2cc(Cl)ccc2n1 [Example 81] |
| < 5 µM | CS(=O)(=O)C1CCN(c2cc(C#N)c3cc(Cl)ccc3n2)C1 (centres unmarked) [Example 47] |
| < 5 µM | N#Cc1cc(N2CCCCC2)nc2ccc(Br)cc12 [Example 21] |
| < 5 µM | CN(CC1CC1)C(=O)C1CCN(c2cc(C#N)c3cc(Br)ccc3n2)CC1 [Example 124] |
| < 5 µM | N#Cc1cc(N2CC[C@H](N)C(F)C2)nc2ccc(Br)cc12 (some centres unmarked) [Example 99] |
| < 5 µM | CN(C)c1cc(C#N)c2ccc(Cl)cc2n1 [Example 27] |
| > 30 µM | N#Cc1cc(N2CCC(NCCO)CC2)nc2ccccc12 [Example 8] |
| < 5 µM | N#Cc1cc(NC2CCCN(C(N)=O)C2)nc2ccc(Cl)cc12 (centres unmarked) [Example 37] |
| < 5 µM | C[C@@H]1CCC[C@H](C)N1c1cc(C#N)c2cc(C(C)(C)O)ccc2n1 [Example 148] |
| < 5 µM | N#Cc1cc(N2CCC[C@H](NC(=O)c3cn[nH]c3)C2)nc2ccc(Br)cc12 [Example 127] |
| > 30 µM | Cc1cc(N2CCC(NCCO)CC2)nc2ccc(Cl)cc12 [Example 9] |
| < 5 µM | N#Cc1cc(N2CCCC(CCC(N)=O)C2)nc2ccc(Cl)cc12 (centres unmarked) [Example 40] |
| < 5 µM | Cc1ccc2nc(N(C)C)cc(C#N)c2c1 [Example 19] |

| IC50 | Compound |
| --- | --- |
| < 5 µM | N#Cc1cc(N2CCC[C@H](C(=O)N3CCCC3)C2)nc2ccc(Br)cc12 [Example 100] |
| < 5 µM | CC(=O)N[C@@]1(C)CCCN(c2cc(C#N)c3cc(Br)ccc3n2)C1 [Example 119] |
| 5 to 15 µM | N#Cc1cc(NC(CCO)C2CCOCC2)nc2ccc(Cl)cc12 (centres unmarked) [Example 33] |
| < 5 µM | N#Cc1cc(N2CCC[C@H](NC(=O)c3ccncn3)C2)nc2ccc(Br)cc12 [Example 126] |
| 15 to 30 µM | CN(C)C(=O)NCCNc1cc(C#N)c2cc(Cl)ccc2n1 [Example 41] |
| < 5 µM | C[C@H]1CCCN(c2cc(C#N)c3cc(Cl)ccc3n2)C1 [Example 63] |
| > 30 µM | N#Cc1cc(Cl)nc2ccc(Cl)cc12 [Example 15] |
| < 5 µM | CN(CC1CC1)C(=O)[C@H]1CCCN(c2cc(C#N)c3cc(Br)ccc3n2)C1 [Example 115] |
| 5 to 15 µM | Cn1cc(-c2cc(C#N)c3cc(Cl)ccc3n2)cn1 [Example 86] |
| < 5 µM | CN(C)C(=O)[C@H]1CCCN(c2cc(C#N)c3cc(Cl)ccc3n2)C1 [Example 80] |
| < 5 µM | N#Cc1cc(N2CC[C@H](C(=O)N3CCCC3)C2)nc2ccc(Br)cc12 [Example 142] |
| < 5 µM | C[C@@H]1CCC[C@H](C)N1c1cc(C#N)c2ccccc2n1 [Example 144] |
| < 5 µM | N#Cc1cc(N2CCC[C@H](C(N)=O)C2)nc2ccc(Cl)cc12 [Example 78] |
| > 30 µM | Cc1cnc(CNc2cc(C#N)c3cc(Cl)ccc3n2)o1 [Example 28] |
| < 5 µM | N#Cc1cc(NCc2cccc(C(N)=O)c2)nc2ccc(Cl)cc12 [Example 45] |
| < 5 µM | N#Cc1cc(NC2CCN(Cc3cccnc3)CC2)nc2ccc(Cl)cc12 [Example 44] |
| 5 to 15 µM | N#Cc1cc(N2CCC(C(=O)NCC3CC3)CC2)nc2ccc(Br)cc12 [Example 105] |
